# According to ChEMBL document CHEMBL4043136, “Chiral-pool synthesis of 1,2,4-trisubstituted 1,4-diazepanes as novel σ1 receptor ligands” (Bioorg Med Chem, 2017):
# Calls of active or inactive are those of the source. The calls are words filed in the database; no cut-off is given here.
# How the values were obtained:
# [1] = molecular target: Alpha-1D adrenergic receptor (Homo sapiens) (UniProt P25100); assay: Displacement of [3H]-prazosin from adrenergic alpha1D receptor (unknown origin) at 1 uM
# Rattus norvegicus = assay: Analgesic activity in rat assessed as inhibition of formalin-induced pain by measuring time spent licking injected paw in late phase (10 to 35 min) administered at 10 mg/kg by two-phase analgesic formalin assay; type: functional, organism-based
# [2] = molecular target: Adenosine receptor A2a (Homo sapiens) (UniProt P29274); assay: Displacement of [3H]-CGS21680 from adenosine A2A receptor (unknown origin) at 1 uM
# Mus musculus [3] = assay: Toxicity in mouse at 1 mg/kg, ip by Irwin test; type: organism-based; conditions: in vivo
# [4] = molecular target: Muscarinic acetylcholine receptor M2 (Homo sapiens) (UniProt P08172); assay: Displacement of [3H]-N-methylscopolamine from muscarinic M2 receptor (unknown origin) at 1 uM
# [5] = Metabolic stability in mouse microsomes assessed as amount of parent compound remaining after 5 mins; type: ADME, Microsome; conditions: read-out: Stability
# [6] = molecular target: Sigma non-opioid intracellular receptor 1 (Cavia porcellus) (UniProt Q60492); assay: Agonist activity at sigma1 receptor assessed as potentiation of electrically stimulated contractions of the guinea pig vas deferens relative to (S)-3-PPP
# [7] = molecular target: C-C chemokine receptor type 5 (Homo sapiens) (UniProt P51681); assay: Displacement of [125I]-MIP-1beta from CCR5 receptor (unknown origin) at 1 uM
# [8] = molecular target: Beta-2 adrenergic receptor (Homo sapiens) (UniProt P07550); assay: Displacement of [3H]-CGP-12177 from adrenergic beta2 receptor (unknown origin) at 1 uM
# Homo sapiens [9] = organism: Homo sapiens; assay: Displacement of [3H]-CGP-54626 from […] GABAB receptor (unknown origin) at 1 uM
# [10] = molecular target: Neuropeptide Y receptor type 1 (Homo sapiens) (UniProt P25929); assay: Displacement of [125I]-Peptide YY from neuropeptide Y Y1 receptor (unknown origin) at 1 uM
# CYP2C19 = CYP2C19 (Homo sapiens, UniProt P33261); assay: Inhibition on CYP2C19 (unknown origin) at 1 uM; type: ADME
# Homo sapiens [11] = organism: Homo sapiens; assay: Displacement of [125I]-epibatidine from nicotinic acetylcholine receptor (unknown origin) at 1 uM
# CYP3A4 = CYP3A4 (Homo sapiens, UniProt P08684); assay: Inhibition on CYP3A4 (unknown origin) at 1 uM; type: ADME
# CYP2C9 = CYP2C9 (Homo sapiens, UniProt P11712); assay: Inhibition on CYP2C9 (unknown origin) at 1 uM; type: ADME
# [12] = molecular target: T1, Sigma intracellular receptor 2 (Rattus norvegicus, UniProt Q5U3Y7); assay: Displacement of [3H]-DTG from sigma2 receptor in rat liver membranes after 120 mins by liquid scintillation counting; type: cell membranes, Membrane
# T1 sequence (Q5U3Y7 whole entry): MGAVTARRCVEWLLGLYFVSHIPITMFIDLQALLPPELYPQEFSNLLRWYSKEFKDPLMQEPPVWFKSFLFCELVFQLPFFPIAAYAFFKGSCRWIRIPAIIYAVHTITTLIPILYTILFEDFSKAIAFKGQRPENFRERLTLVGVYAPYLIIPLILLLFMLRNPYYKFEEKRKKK
# [13] = Metabolic stability in rat microsomes assessed as amount of parent compound remaining after 5 mins; type: ADME, Microsome; conditions: read-out: Stability
# [14] = molecular target: Sigma non-opioid intracellular receptor 1 (Cavia porcellus) (UniProt Q60492); assay: Agonist activity at sigma1 receptor assessed as potentiation of electrically stimulated contractions of the guinea pig vas deferens at 30 uM relative to (S)-3-PPP
# Homo sapiens [15] = organism: Homo sapiens; assay: Displacement of [3H]-CGP-39653 from glutamate […] receptor (unknown origin) at 1 uM
# Mus musculus [16] = assay: Toxicity in mouse assessed as writhing at 100 mg/kg, ip by Irwin test; type: organism-based; conditions: in vivo
# [17] = molecular target: Kappa-type opioid receptor (Homo sapiens) (UniProt P41145); assay: Displacement of [3H]-d iprenorphine from kappa opioid receptor (unknown origin) at 1 uM
# Mus musculus [18] = assay: Toxicity in mouse assessed as increase in abdominal tone at 100 mg/kg, ip by Irwin test; type: organism-based; conditions: in vivo
# [19] = molecular target: D(3) dopamine receptor (Homo sapiens) (UniProt P35462); assay: Displacement of [3H]-sp iperone from dopamine D3 receptor (unknown origin) at 1 uM
# [20] = molecular target: Epidermal growth factor receptor (Homo sapiens) (UniProt P00533); assay: Displacement of [125I]-EGF from EGF receptor (unknown origin) at 1 uM
# Homo sapiens [21] = organism: Homo sapiens; assay: Displacement of [3H]-sp iperone from dopamine D4.2 receptor (unknown origin) at 1 uM
# [22] = molecular target: C-C chemokine receptor type 4 (Homo sapiens) (UniProt P51679); assay: Displacement of [125I]-TARC from CCR4 receptor (unknown origin) at 1 uM
# [23] = molecular target: Glucocorticoid receptor (Homo sapiens) (UniProt P04150); assay: Displacement of [3H]-dexamethasone from glucocorticoid receptor (unknown origin) at 1 uM
# [24] = molecular target: Neuropeptide Y receptor type 2 (Homo sapiens) (UniProt P49146); assay: Displacement of [125I]-Peptide YY from neuropeptide Y Y2 receptor (unknown origin) at 1 uM
# [25] = molecular target: Alpha-2A adrenergic receptor (Homo sapiens) (UniProt P08913); assay: Displacement of [3H]-MK-912 from adrenergic alpha2A receptor (unknown origin) at 1 uM
# [26] = molecular target: B1 bradykinin receptor (Homo sapiens) (UniProt P46663); assay: Displacement of [3H]-(Des-Arg10)-Kallidin from bradykinin B1 receptor (unknown origin) at 1 uM
# [27] = molecular target: Platelet-activating factor receptor (Homo sapiens) (UniProt P25105); assay: Displacement of [3H]-PAF from platelet activating factor receptor (unknown origin) at 1 uM
# [28] = molecular target: Muscarinic acetylcholine receptor M1 (Homo sapiens) (UniProt P11229); assay: Displacement of [3H]-N-methylscopolamine from muscarinic M1 receptor (unknown origin) at 1 uM
# Muscarinic acetylcholine receptor M1 (Homo sapiens), sequence (P11229 whole entry): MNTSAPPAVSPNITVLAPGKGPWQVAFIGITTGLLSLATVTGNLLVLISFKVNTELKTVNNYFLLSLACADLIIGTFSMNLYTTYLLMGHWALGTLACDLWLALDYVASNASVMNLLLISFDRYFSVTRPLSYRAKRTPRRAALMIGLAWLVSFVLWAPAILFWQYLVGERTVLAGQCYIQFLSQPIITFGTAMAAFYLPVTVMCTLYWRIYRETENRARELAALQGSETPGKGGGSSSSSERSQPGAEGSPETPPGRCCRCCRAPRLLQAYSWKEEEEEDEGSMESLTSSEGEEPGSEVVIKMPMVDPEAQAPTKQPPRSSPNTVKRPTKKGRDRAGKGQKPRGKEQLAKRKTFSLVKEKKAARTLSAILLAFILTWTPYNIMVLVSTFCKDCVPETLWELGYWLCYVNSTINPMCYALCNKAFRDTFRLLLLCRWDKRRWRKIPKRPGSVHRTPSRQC
# Sigma non-opioid intracellular receptor 1 (Cavia porcellus), sequence (Q60492 whole entry): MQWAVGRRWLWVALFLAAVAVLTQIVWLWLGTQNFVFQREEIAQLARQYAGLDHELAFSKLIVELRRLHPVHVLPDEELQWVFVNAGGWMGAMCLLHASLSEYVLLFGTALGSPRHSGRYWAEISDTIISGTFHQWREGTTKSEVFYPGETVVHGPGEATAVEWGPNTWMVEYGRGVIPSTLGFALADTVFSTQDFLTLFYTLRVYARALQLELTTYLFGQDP
# Epidermal growth factor receptor (Homo sapiens), sequence (P00533 whole entry): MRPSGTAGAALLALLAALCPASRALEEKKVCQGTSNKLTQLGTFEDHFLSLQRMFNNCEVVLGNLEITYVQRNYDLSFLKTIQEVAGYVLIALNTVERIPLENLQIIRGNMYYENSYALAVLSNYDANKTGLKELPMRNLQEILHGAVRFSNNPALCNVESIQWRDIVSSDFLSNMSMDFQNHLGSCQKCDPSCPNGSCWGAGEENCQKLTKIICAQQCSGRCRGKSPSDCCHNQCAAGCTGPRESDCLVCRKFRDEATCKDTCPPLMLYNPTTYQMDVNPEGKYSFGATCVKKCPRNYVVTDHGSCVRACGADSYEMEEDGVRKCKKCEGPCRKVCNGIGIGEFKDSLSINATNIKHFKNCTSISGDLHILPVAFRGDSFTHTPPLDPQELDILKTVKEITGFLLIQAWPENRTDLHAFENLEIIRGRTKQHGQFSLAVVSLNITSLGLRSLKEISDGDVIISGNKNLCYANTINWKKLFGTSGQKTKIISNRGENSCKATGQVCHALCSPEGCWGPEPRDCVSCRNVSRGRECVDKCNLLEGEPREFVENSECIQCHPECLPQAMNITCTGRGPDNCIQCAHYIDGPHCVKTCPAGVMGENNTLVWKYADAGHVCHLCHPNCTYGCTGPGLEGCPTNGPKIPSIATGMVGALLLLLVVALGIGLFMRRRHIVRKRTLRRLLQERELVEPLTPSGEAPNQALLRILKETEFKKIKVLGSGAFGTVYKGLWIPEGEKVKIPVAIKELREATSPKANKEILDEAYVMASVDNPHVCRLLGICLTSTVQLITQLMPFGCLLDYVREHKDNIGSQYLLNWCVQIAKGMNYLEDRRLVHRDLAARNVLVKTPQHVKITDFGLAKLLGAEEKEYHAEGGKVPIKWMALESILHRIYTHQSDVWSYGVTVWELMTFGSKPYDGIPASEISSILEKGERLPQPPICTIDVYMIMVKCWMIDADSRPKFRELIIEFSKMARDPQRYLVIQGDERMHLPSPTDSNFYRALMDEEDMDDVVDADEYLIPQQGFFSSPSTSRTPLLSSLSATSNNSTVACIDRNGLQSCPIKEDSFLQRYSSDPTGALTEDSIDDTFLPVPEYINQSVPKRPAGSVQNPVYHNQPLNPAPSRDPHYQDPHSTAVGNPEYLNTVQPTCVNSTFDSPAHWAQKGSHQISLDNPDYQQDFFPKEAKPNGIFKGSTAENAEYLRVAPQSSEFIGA
# CYP2C9, sequence (P11712 whole entry): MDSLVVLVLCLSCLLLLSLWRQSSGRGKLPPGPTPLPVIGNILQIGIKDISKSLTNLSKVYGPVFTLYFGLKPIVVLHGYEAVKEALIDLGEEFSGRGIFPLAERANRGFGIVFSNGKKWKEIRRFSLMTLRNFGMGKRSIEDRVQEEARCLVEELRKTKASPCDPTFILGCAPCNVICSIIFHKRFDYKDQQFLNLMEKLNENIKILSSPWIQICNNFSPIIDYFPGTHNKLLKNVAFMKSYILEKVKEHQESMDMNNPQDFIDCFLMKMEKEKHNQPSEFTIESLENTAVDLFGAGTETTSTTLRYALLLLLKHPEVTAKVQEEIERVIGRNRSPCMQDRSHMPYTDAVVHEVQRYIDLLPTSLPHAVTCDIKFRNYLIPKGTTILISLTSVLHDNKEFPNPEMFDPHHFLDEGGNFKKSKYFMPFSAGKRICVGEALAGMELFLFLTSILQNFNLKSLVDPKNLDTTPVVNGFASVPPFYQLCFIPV
# B1 bradykinin receptor (Homo sapiens), sequence (P46663 whole entry): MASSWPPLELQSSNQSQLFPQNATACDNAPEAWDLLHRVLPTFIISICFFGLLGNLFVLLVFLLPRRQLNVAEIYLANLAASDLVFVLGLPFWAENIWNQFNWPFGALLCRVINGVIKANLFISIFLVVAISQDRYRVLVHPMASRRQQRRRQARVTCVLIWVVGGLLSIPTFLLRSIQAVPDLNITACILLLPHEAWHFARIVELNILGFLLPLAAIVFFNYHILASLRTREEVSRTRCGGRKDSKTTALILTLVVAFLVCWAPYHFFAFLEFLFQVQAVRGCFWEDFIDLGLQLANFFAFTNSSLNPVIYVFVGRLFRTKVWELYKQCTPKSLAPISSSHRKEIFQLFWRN
# Alpha-2A adrenergic receptor (Homo sapiens), sequence (P08913 whole entry): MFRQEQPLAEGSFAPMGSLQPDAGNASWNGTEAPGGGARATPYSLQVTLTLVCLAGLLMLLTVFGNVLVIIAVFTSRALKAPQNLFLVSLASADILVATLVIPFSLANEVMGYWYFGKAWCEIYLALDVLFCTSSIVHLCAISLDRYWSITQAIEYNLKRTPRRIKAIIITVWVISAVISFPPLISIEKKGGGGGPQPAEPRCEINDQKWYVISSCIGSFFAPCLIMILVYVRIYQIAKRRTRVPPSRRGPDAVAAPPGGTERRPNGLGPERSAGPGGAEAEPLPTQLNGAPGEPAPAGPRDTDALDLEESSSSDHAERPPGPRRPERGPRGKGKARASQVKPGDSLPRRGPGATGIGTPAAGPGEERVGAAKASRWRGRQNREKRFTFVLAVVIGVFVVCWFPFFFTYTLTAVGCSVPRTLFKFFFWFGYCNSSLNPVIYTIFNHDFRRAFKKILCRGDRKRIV
# Beta-2 adrenergic receptor (Homo sapiens), sequence (P07550 whole entry, looked up): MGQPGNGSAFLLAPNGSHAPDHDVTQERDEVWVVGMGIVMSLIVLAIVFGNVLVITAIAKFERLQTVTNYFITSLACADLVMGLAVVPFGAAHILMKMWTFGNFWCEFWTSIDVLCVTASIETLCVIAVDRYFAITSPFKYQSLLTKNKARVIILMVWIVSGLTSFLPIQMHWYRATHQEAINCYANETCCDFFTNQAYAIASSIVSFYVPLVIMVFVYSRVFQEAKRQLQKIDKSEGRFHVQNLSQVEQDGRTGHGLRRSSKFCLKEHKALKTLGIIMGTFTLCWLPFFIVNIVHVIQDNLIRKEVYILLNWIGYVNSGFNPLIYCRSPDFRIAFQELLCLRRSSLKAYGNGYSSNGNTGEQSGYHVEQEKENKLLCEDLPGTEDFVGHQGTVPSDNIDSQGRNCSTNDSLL
# Adenosine receptor A2a (Homo sapiens), sequence (P29274 whole entry): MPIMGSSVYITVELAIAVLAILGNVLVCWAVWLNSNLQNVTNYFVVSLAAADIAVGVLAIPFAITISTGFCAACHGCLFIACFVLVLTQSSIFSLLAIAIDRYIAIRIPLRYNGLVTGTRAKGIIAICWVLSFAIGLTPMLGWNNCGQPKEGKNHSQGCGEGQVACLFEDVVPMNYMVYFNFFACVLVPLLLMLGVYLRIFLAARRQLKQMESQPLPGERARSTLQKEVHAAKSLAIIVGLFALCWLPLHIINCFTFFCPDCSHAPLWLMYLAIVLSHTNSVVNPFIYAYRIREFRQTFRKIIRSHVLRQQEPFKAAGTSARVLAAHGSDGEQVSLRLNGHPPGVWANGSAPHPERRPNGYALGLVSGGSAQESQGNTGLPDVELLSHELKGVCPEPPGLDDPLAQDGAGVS
# CYP3A4, sequence (P08684 whole entry): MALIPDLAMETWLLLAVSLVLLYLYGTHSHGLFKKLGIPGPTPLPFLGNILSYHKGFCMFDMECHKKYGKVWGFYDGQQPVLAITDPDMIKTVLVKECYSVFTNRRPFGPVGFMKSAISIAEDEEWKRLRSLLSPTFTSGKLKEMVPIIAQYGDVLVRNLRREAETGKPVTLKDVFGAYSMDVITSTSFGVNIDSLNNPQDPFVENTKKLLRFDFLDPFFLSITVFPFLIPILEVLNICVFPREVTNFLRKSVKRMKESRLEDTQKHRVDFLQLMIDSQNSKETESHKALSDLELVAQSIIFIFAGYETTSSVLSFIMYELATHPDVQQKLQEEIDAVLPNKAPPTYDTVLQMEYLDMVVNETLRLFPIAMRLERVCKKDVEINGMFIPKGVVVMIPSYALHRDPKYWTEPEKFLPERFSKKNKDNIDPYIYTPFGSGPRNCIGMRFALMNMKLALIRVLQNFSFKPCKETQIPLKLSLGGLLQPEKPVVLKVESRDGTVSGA
# Platelet-activating factor receptor (Homo sapiens), sequence (P25105 whole entry): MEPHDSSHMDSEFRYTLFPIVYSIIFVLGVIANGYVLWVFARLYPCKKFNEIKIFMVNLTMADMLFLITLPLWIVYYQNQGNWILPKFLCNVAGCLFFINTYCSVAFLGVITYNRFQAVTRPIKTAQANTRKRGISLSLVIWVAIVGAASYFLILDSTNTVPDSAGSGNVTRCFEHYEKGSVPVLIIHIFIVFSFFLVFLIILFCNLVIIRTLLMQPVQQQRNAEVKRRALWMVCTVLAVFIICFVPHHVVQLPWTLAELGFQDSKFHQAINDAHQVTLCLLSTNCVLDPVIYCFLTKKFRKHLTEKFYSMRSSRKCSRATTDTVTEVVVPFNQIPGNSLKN
structure (smiles),measurement,setting,value
COc1ccc(CN2CCCN(Cc3ccccc3)[C@@H](C)C2)cc1,inhibition,[1],inactive
same,Activity,Rattus norvegicus,Active
same,inhibition,[2],inactive
same,Activity,Mus musculus [3],Non-Toxic
same,inhibition,[4],inactive
same,remaining at 5 min,[5],< 50%
same,Activity,[6],Dose-dependent effect
same,inhibition,[7],inactive
same,inhibition,[8],inactive
same,inhibition,Homo sapiens [9],inactive
same,inhibition,[10],inactive
same,inhibition at 1 µM,CYP2C19,38%
same,inhibition,Homo sapiens [11],inactive
same,inhibition at 1 µM,CYP3A4,7%
same,inhibition at 1 µM,CYP2C9,0%
same,Ki,[12],0.046 µM
same,remaining at 5 min,[13],< 50%
same,Activity,[14],29%
same,inhibition,Homo sapiens [15],inactive
same,Activity,Mus musculus [16],Toxic
same,inhibition,[17],inactive
same,Activity,Mus musculus [18],Toxic
same,inhibition,[19],inactive
same,inhibition,[20],inactive
same,inhibition,Homo sapiens [21],inactive
same,inhibition,[22],inactive
same,inhibition,[23],inactive
same,inhibition,[24],inactive
same,inhibition,[25],inactive
same,inhibition,[26],inactive
same,inhibition,[27],inactive
same,inhibition,[28],inactive
